Measured values from ChEMBL document CHEMBL5143608, “Peptide-based long-acting co-agonists of GLP-1 and cholecystokinin 1 receptors as novel anti-diabesity agents” (Eur J Med Chem, 2022).
Calls of active or inactive are those of the source. The rule behind the calls is not given here.

What was measured:
[1] = tested on: Mus musculus; experiment: Anti-diabesity activity in DIO C57BL/6 mouse assessed as decrease in fasted blood glucose level at 100 nmol/kg, sc administered once daily for 7 days; format: functional, organism-based; details: time 7.0 day
[2] = target: T1, CCK2R (gastrin/cholecystokinin type B receptor) (Homo sapiens, UniProt P32239); experiment: Agonist activity at human CCK2R expressed in HEK293 cells assessed as ERK1/2 phosphorylation incubated for 5 mins by AlphaScreen assay; format: functional, cell-based; details: human, HEK293 cells expressing human CCK2R
T1 sequence (P32239 whole entry): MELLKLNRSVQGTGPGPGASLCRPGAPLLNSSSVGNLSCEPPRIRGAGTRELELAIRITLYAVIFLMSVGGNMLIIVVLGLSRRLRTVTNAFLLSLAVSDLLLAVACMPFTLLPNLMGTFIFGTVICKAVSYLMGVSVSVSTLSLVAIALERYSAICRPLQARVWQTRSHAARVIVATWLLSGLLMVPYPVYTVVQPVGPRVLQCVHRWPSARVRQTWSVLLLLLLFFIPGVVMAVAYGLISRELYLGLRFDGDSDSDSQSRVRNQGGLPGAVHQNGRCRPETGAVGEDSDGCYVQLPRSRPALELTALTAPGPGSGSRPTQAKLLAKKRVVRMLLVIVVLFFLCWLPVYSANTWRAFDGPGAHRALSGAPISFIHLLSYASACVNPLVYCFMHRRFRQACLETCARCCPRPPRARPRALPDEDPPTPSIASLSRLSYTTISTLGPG

[3] = Cmax in Sprague-Dawley rat at 25 nmol/kg, iv by LC-MS/MS analysis; format: ADME, organism-based; set-up: dose 25 nmol/kg, route iv; details: in vivo
[4] = AUC (0 to infinity) in Sprague-Dawley rat at 25 nmol/kg, iv by LC-MS/MS analysis; format: ADME, organism-based; set-up: time infinity, dose 25 nmol/kg, route iv; details: in vivo
[5] = Cmax in Sprague-Dawley rat at 25 nmol/kg, sc by LC-MS/MS analysis; format: ADME, organism-based; set-up: dose 25 nmol/kg, route sc; details: in vivo
[6] = Half life in Sprague-Dawley rat at 25 nmol/kg, sc by LC-MS/MS analysis; format: ADME, organism-based; details: in vivo
[7] = MRT in Sprague-Dawley rat at 25 nmol/kg, sc by LC-MS/MS analysis; format: ADME, organism-based; details: in vivo
[8] = tested on: Mus musculus; experiment: Hypoglycemic activity in db/db mouse assessed as reduction in glucose excursion at 25 nmol/kg, ip administered 30 min before oral glucose administration and measured upto 120 mins by OGTT; format: functional, organism-based
[9] = tested on: Mus musculus; experiment: Anti-diabesity activity in DIO C57BL/6 mouse assessed as reduction in body weight at 100 nmol/kg, sc administered once daily for 7 days; format: functional; details: C57BL/6, 168 h, time 7 day
[10] = tested on: Mus musculus; experiment: Anti-diabesity activity in DIO C57BL/6 mouse assessed as reduction in cumulative food intake at 100 nmol/kg, sc administered once daily for 7 days; format: functional, organism-based; details: time 7.0 day
[11] = Renal toxicity in DIO C57BL/6 mouse assessed as blood urea nitrogen level at 100 nmol/kg, sc administered once daily for 7 days; format: organism-based; details: in vivo, 168 h, time 7 day
[12] = Hepatotoxicity in DIO C57BL/6 mouse assessed as alanine aminotransferase level in plasma at 100 nmol/kg, sc administered once daily for 7 days; format: toxicity, organism-based; details: in vivo, 168 h, time 7 day
[13] = tested on: Mus musculus; experiment: Anti-diabesity activity against DIO C57BL/6 mouse assessed as reduction in cumulative food intake at 25 nmol/kg, sc administered every 2 days for 3 weeks; format: functional, organism-based; details: time 21.0 day
[14] = tested on: Mus musculus; experiment: Anti-diabesity activity against DIO C57BL/6 mouse assessed as decrease in fat mass at 25 nmol/kg, sc administered every 2 days for 3 weeks; format: functional, organism-based; details: time 21.0 day
[15] = tested on: Mus musculus; experiment: Anti-diabesity activity against DIO C57BL/6 mouse assessed as increase in insulin sensitivity by measuring reduction in circulating insulin levels at 25 nmol/kg, sc administered every 2 days for 3 weeks by ELISA; format: functional, organism-based; details: time 21.0 day
[16] = tested on: Mus musculus; experiment: Anti-diabesity activity against DIO C57BL/6 mouse assessed as reduction in cholesterol level in serum at 25 nmol/kg, sc administered every 2 days for 3 weeks; format: functional, organism-based; details: time 21.0 day
[17] = tested on: Mus musculus; experiment: Anti-diabesity activity against DIO C57BL/6 mouse assessed as reduction in triglycerides level in serum at 25 nmol/kg, sc administered every 2 days for 3 weeks; format: functional, organism-based; details: time 21.0 day
[18] = tested on: Mus musculus; experiment: Anti-diabesity activity against db/db mouse assessed as reduction in fasted blood glucose level at 25 nmol/kg, sc administered every 2 days for 3 weeks; format: functional, organism-based; details: time 21.0 day
[19] = tested on: Mus musculus; experiment: Anti-diabesity activity against db/db mouse assessed as enhanced islets insulin content at 25 nmol/kg, sc administered every 2 days for 3 weeks by immunohistochemistry staining; format: functional, organism-based; details: time 21.0 day
[20] = tested on: Mus musculus; experiment: Anti-diabesity activity in DIO C57BL/6 mouse assessed as reduction in body weight at 100 nmol/kg, sc administered every 2 days for 10 days; format: functional; details: C57BL/6, 240 h, time 10 day
[21] = tested on: Mus musculus; experiment: Anti-diabesity activity in db/db mouse assessed as improvement in glucose tolerance at 25 nmol/kg, ip pretreated for 15 mins with CCK-1R antagonist, Lorglumide followed by compound administration and 15 mins later treated with oral glucose and measured upto 120 mins by OGTT; format: functional, organism-based; details: time 135.0 min
[22] = Pancreatic insult activity in DIO C57BL/6 mouse assessed as increase in amylase level in plasma at 100 nmol/kg, sc administered once daily for 7 days; format: toxicity, organism-based; details: in vivo, 168 h, time 7 day
[23] = Renal toxicity in db/db mouse assessed as blood urea nitrogen level at 100 nmol/kg, sc administered once daily for 7 days; format: organism-based; details: in vivo, 168 h, time 7 day
[24] = Pancreatic insult activity in db/db mouse assessed as increase in lipase level in plasma at 100 nmol/kg, sc administered once daily for 7 days; format: toxicity, organism-based; details: in vivo, 168 h, time 7 day
[25] = Pancreatic insult activity in db/db mouse assessed as increase in amylase level in plasma at 100 nmol/kg, sc administered once daily for 7 days; format: toxicity, organism-based; details: in vivo, 168 h, time 7 day
[26] = tested on: Rattus norvegicus; experiment: Anorectic activity in Sprague-Dawley rat assessed as reduction in food intake at 25 nmol/kg,ip measured after 24 hrs; format: functional
[27] = Toxicity in Sprague-Dawley rat assessed as induction of Pica behaviour by measuring kaolin intake at 25 nmol/kg, ip measured after 24 hrs; format: organism-based; details: in vivo
[28] = Hepatotoxicity in DIO C57BL/6 mouse assessed as aspartate aminotransferase level in serum at 25 nmol/kg, sc administered every 2 days for 3 weeks; format: toxicity, organism-based; details: in vivo, 504 h, time 21 day
[29] = tested on: Mus musculus; experiment: Anti-diabesity activity against db/db mouse assessed as HbA1c level at 25 nmol/kg, sc administered every 2 days for 3 weeks; format: functional, organism-based; details: time 21.0 day
[30] = tested on: Mus musculus; experiment: Anti-diabesity activity against db/db mouse assessed as reduction in HbA1c level at 25 nmol/kg, sc administered every 2 days for 12 weeks; format: functional, organism-based
[31] = tested on: Mus musculus; experiment: Anti-diabesity activity against db/db mouse assessed as reduction in fasting blood glucose level at 25 nmol/kg, sc administered every 2 days for 6 weeks followed by saline treatment for 6 weeks and measured during first 6 weeks; format: functional, organism-based
[32] = tested on: Mus musculus; experiment: Anti-diabesity activity against db/db mouse assessed as reduction in HbA1c level at 25 nmol/kg, sc administered every 2 days for 6 weeks followed by saline treatment for 6 weeks and measured during first 6 weeks; format: functional, organism-based
[33] = tested on: Mus musculus; experiment: Anti-diabesity activity against db/db mouse assessed as increase in pancreas mass at 25 nmol/kg, sc administered every 2 days for 12 weeks; format: functional, organism-based
[34] = tested on: Mus musculus; experiment: Anti-diabesity activity against db/db mouse assessed as increase in IOD of insulin in pancreas at 25 nmol/kg, sc administered every 2 days for 12 weeks by immunohistochemistry; format: functional, organism-based

Row | SMILES | Activity [1] | EC50 at 5 min [2] | Cmax [3] | AUC(0-inf) [4] | Cmax [5] | half-life [6] | MRT [7] | Activity [8] | inhibition in vivo at 0.1 µmol/kg [9] | Activity [10] | Activity [11] | Activity [12] | Activity [13] | Activity [14] | Activity [15] | Activity [16] | Activity [17] | Activity [18] | Activity [19] | inhibition in vivo at 0.1 µmol/kg [20] | other results
1 | CCCC[C@H](NC(=O)[C@H](Cc1ccc(CS(=O)(=O)O)cc1)NC(=O)[C@H](CC(=O)O)NC(=O)COCCOCCNC(=O)COCCOCCNC(=O)[C@H](CCCCN)NC(=O)CNC(=O)[C@H](CCCCN)NC(=O)[C@@H](NC(=O)[C@H](CC(C)C)NC(=O)[C@H](Cc1c[nH]c2ccccc12)NC(=O)[C@H](CCC(=O)O)NC(=O)[C@@H](NC(=O)[C@H](Cc1ccccc1)NC(=O)[C@H](CCC(=O)O)NC(=O)[C@H](CCCCNC(=O)COCCOCCNC(=O)COCCOCCNC(=O)CC[C@H](NC(=O)CCCCCCCCCCCCCCCCC(=O)O)C(=O)O)NC(=O)[C@H](C)NC(=O)[C@H](C)NC(=O)[C@H](CCC(=O)O)NC(=O)[C@H](CCC(=O)O)NC(=O)[C@H](CCC(=O)O)NC(=O)[C@H](CC(C)C)NC(=O)[C@@H](NC(=O)[C@H](CCC(=O)O)NC(=O)[C@@H](NC(=O)[C@@H](NC(=O)[C@H](CC(=O)O)NC(=O)[C@H](CC(N)=O)NC(=O)[C@@H](NC(=O)[C@H](Cc1ccc(O)cc1)NC(=O)[C@@H](NC(=O)CNC(=O)[C@H](CCC(=O)O)NC(=O)C(C)(C)NC(=O)[C@@H](N)Cc1cnc[nH]1)[C@@H](C)O)[C@@H](C)O)C(C)C)[C@@H](C)O)[C@@H](C)O)[C@@H](C)CC)[C@@H](C)CC)C(=O)NCC(=O)N[C@@H](Cc1c[nH]c2ccccc12)C(=O)N[C@@H](CCCC)C(=O)N(C)[C@H](CC(=O)O)C(=O)N(C)[C@@H](Cc1ccccc1)C(N)=O | Active | > 0.1 µM | 1.66 µg/mL | 17.6 µg·h/mL | 0.461 µg/mL | 16.8 h | 25.9 h | Active | 21.4% | Active | Non-Toxic | Non-Toxic | Active | Active | Active | Active | Active | Active | Active | 30.6% | Activity [21]: Active; Activity [22]: Non-Toxic; Activity [23]: Non-Toxic; Activity [24]: Non-Toxic; Activity [25]: Non-Toxic; inhibition in vivo at 0.025 µmol/kg [26]: 33%; Activity [27]: Non-Toxic; Activity [28]: Non-Toxic; Activity [29]: Active; Activity [30]: Active; Activity [31]: Active; Activity [32]: Active; Activity [33]: Active; Activity [34]: Active
2 | CCCC[C@H](NC(=O)[C@H](Cc1ccc(CS(=O)(=O)O)cc1)NC(=O)[C@H](CC(=O)O)NC(=O)COCCOCCNC(=O)COCCOCCNC(=O)[C@H](CCCNC(=N)N)NC(=O)CNC(=O)[C@H](CCCCN)NC(=O)[C@@H](NC(=O)[C@H](CC(C)C)NC(=O)[C@H](Cc1c[nH]c2ccccc12)NC(=O)[C@H](C)NC(=O)[C@@H](NC(=O)[C@H](Cc1ccccc1)NC(=O)[C@H](CCC(=O)O)NC(=O)[C@H](CCCCNC(=O)COCCOCCNC(=O)COCCOCCNC(=O)CC[C@H](NC(=O)CCCCCCCCCCCCCCCCC(=O)O)C(=O)O)NC(=O)[C@H](C)NC(=O)[C@H](C)NC(=O)[C@H](CCC(N)=O)NC(=O)CNC(=O)[C@H](CCC(=O)O)NC(=O)[C@H](CC(C)C)NC(=O)[C@H](Cc1ccc(O)cc1)NC(=O)[C@H](CO)NC(=O)[C@H](CO)NC(=O)[C@@H](NC(=O)[C@H](CC(=O)O)NC(=O)[C@H](CO)NC(=O)[C@@H](NC(=O)[C@H](Cc1ccccc1)NC(=O)[C@@H](NC(=O)CNC(=O)[C@H](CCC(=O)O)NC(=O)[C@H](C)NC(=O)[C@@H](N)Cc1cnc[nH]1)[C@@H](C)O)[C@@H](C)O)C(C)C)[C@@H](C)CC)C(C)C)C(=O)NCC(=O)N[C@@H](Cc1c[nH]c2ccccc12)C(=O)N[C@@H](CCCC)C(=O)N(C)[C@H](CC(=O)O)C(=O)N(C)[C@@H](Cc1ccccc1)C(N)=O | Active | > 0.1 µM | 1.68 µg/mL | 6.05 µg·h/mL | 0.341 µg/mL | 9.2 h | 14.7 h | Active | 19.2% | Active | Non-Toxic | Non-Toxic | Active | Active | Active | Active | Active | Active | Active | 27.1% | Activity [21]: Active; Activity [22]: Non-Toxic; Activity [23]: Non-Toxic; Activity [24]: Non-Toxic; Activity [25]: Non-Toxic; inhibition in vivo at 0.025 µmol/kg [26]: 28%; Activity [27]: Non-Toxic; Activity [28]: Non-Toxic; Activity [29]: Active; Activity [30]: Active; Activity [31]: Active; Activity [32]: Active; Activity [33]: Active; Activity [34]: Active
